Tests used:
[1] = system: HXB2 luciferase reporter pseudovirions (HOS-CD4-CXCR4 target cells); experiment: Pseudovirion infectivity assay, HXB2; assay type: cell-based, HIV-1; conditions: HXB2 strain
[2] = system: JRFL luciferase reporter pseudovirions (HOS-CD4-CCR5 target cells); experiment: Pseudovirion infectivity assay, JRFL; assay type: cell-based, HIV-1; conditions: JRFL strain

C34-PEG2-Chol: C-peptide (C34) cholesterol conjugate with short PEG2 linker [reference compound]
fold improved potency of cholesterol conjugate compared to C34 [1]: ~ 40 fold

C34-PEG11-Chol: C-peptide (C34) cholesterol conjugate with PEG11 linker
additional fold improvement in potency over short PEG2 linker [1]: 2 fold

C34-PEG80-Chol: C-peptide (C34) cholesterol conjugate with PEG80 linker
fold worse than the optimal PEG length [2]: 4 fold
